# Publication PMC4551390 (Leukemia, 2015)
# Key:
# tumor FDG uptake (SUV) = experiment: FDG PET/CT tumor metabolic response; format: in vivo, human; settings: Baseline vs Cycle 1 Day 22; 29 subjects scanned, 4 not evaluable
# T-cells = settings: pre-clinical; cited from earlier work
# CLL cells = settings: pre-clinical; cited from earlier work
# bcl-2 = experiment: Western blot protein expression in patient samples; format: in vivo, human; settings: 2 and 4 hours of treatment vs pretreatment
# MCL-1 = experiment: Western blot protein expression in patient samples; format: in vivo, human; settings: 2 and 4 hours of treatment vs pretreatment, P<0.0001
# [1] = Plasma pharmacokinetics after 2-hr IV infusion; settings: for AUC / Cmax / half-life: human, plasma, intravenous; for AUC / Cmax: Mean
# [2] = tested on: relapsed and refractory CLL patients; experiment: Phase I dose escalation: clinical response and PFS; format: in vivo, human
# XIAP = experiment: Western blot protein expression in patient samples; format: in vivo, human; settings: 2 and 4 hours of treatment vs pretreatment
smiles,measurement,setting,value
CCc1cnn2c(NCc3ccc[n+]([O-])c3)cc(N3CCCC[C@H]3CCO)nc12 [Dinaciclib],PET non-responders,tumor FDG uptake (SUV),10
same,PET responders (30% or more decrease in SUV),tumor FDG uptake (SUV),15
same,cytotoxicity to T-cells,T-cells,not cytotoxic
same,therapeutic efficacy against CLL cells as compared to flavopiridol,CLL cells,improved therapeutic efficacy
same,BCL2 protein level,bcl-2,no significant change
same,MCL-1 protein expression,MCL-1,significantly reduced expression
same,"CL, Mean","[1]; Day 1, 5 mg/m^2",26.2 L/hr/m2
same,"Vd, Mean","[1]; Day 1, 5 mg/m^2",92.8 L/m2
same,"CL, Mean","[1]; Day 1, 7 mg/m^2",17.3 L/hr/m2
same,"Vd, Mean","[1]; Day 1, 7 mg/m^2",66.2 L/m2
same,"CL, Mean","[1]; Day 1, 10 mg/m^2",19.9 L/hr/m2
same,"Vd, Mean","[1]; Day 1, 10 mg/m^2",81.8 L/m2
same,"CL, Mean","[1]; Day 1, 14 mg/m^2",18.1 L/hr/m2
same,"Vd, Mean","[1]; Day 1, 14 mg/m^2",74.4 L/m2
same,"CL, Mean","[1]; Day 1, 17 mg/m^2",13.2 L/hr/m2
same,"Vd, Mean","[1]; Day 1, 17 mg/m^2",55.9 L/m2
same,"CL, Mean","[1]; Day 15, 5 mg/m^2",16.1 L/hr/m2
same,"Vd, Mean","[1]; Day 15, 5 mg/m^2",60.3 L/m2
same,"CL, Mean","[1]; Day 15, 7 mg/m^2",23.8 L/hr/m2
same,"Vd, Mean","[1]; Day 15, 7 mg/m^2",79.5 L/m2
same,"CL, Mean","[1]; Day 15, 10 mg/m^2",16.8 L/hr/m2
same,"Vd, Mean","[1]; Day 15, 10 mg/m^2",68.4 L/m2
same,"CL, Mean","[1]; Day 15, 14 mg/m^2",17 L/hr/m2
same,"Vd, Mean","[1]; Day 15, 14 mg/m^2",71.4 L/m2
same,"CL, Mean","[1]; Day 15, 17 mg/m^2",13.8 L/hr/m2
same,"Vd, Mean","[1]; Day 15, 17 mg/m^2",58.9 L/m2
same,increases in exposure (Cmax and AUC),[1]; at 17 mg/m^2,greater than dose-proportional
same,AUC,"[1]; 5 mg/m2, AUC(I), Day 1, 5 mg/m^2",191 ng·h/mL
same,AUC,"[1]; 5 mg/m2, AUC(I), Day 15, 5 mg/m^2",310 ng·h/mL
same,Cmax,"[1]; 5 mg/m2, Cmax, Day 1, 5 mg/m^2",95.4 ng/mL
same,Cmax,"[1]; 5 mg/m2, Cmax, Day 15, 5 mg/m^2",150 ng/mL
same,half-life,"[1]; 5 mg/m2, T1/2, Mean, Day 1, 5 mg/m^2",2.45 h
same,half-life,"[1]; 5 mg/m2, T1/2, Mean, Day 15, 5 mg/m^2",2.5 h
same,AUC,"[1]; 7 mg/m2, AUC(I), Day 1, 7 mg/m^2",403 ng·h/mL
same,AUC,"[1]; 7 mg/m2, AUC(I), Day 15, 7 mg/m^2",294 ng·h/mL
same,Cmax,"[1]; 7 mg/m2, Cmax, Day 15, 7 mg/m^2",157 ng/mL
same,half-life,"[1]; 7 mg/m2, T1/2, Mean, Day 15, 7 mg/m^2",2.31 h
same,AUC,"[1]; 10 mg/m2, AUC(I), Day 1, 10 mg/m^2",501 ng·h/mL
same,AUC,"[1]; 10 mg/m2, AUC(I), Day 15, 10 mg/m^2",592 ng·h/mL
same,Cmax,"[1]; 10 mg/m2, Cmax, Day 1, 10 mg/m^2",277 ng/mL
same,Cmax,"[1]; 10 mg/m2, Cmax, Day 15, 10 mg/m^2",299 ng/mL
same,half-life,"[1]; 10 mg/m2, T1/2, Mean, Day 1, 10 mg/m^2",2.85 h
same,half-life,"[1]; 10 mg/m2, T1/2, Mean, Day 15, 10 mg/m^2",2.82 h
same,AUC,"[1]; 14 mg/m2, AUC(I), Day 1, 14 mg/m^2",775 ng·h/mL
same,AUC,"[1]; 14 mg/m2, AUC(I), Day 15, 14 mg/m^2",827 ng·h/mL
same,Cmax,"[1]; 14 mg/m2, Cmax, Day 1, 14 mg/m^2",404 ng/mL
same,Cmax,"[1]; 14 mg/m2, Cmax, Day 15, 14 mg/m^2",428 ng/mL
same,half-life,"[1]; 14 mg/m2, T1/2, Mean, Day 1, 14 mg/m^2",2.85 h
same,AUC,"[1]; 17 mg/m2, AUC(I), Day 1, 17 mg/m^2",1290 ng·h/mL
same,AUC,"[1]; 17 mg/m2, AUC(I), Day 15, 17 mg/m^2",1260 ng·h/mL
same,Cmax,"[1]; 17 mg/m2, Cmax, Day 1, 17 mg/m^2",624 ng/mL
same,Cmax,"[1]; 17 mg/m2, Cmax, Day 15, 17 mg/m^2",634 ng/mL
same,half-life,"[1]; 17 mg/m2, T1/2, Mean, Day 15, 17 mg/m^2",2.95 h
same,accumulation in plasma,[1]; weekly 2-hour IV infusion,did not accumulate
same,No (%) of Responders,"[2]; 14 mg/mg/m^2 dosing during treatment, 35 pts",22 (63) No (%)
same,response rate,[2]; 21 patients without del(17)(p13.1),57%
same,response rate,[2]; 25 patients with del(17)(p13.1),56%
same,95% confidence interval of response rate,[2]; 35 patients at phase 2 dose of 14 mg/m^2,47–79%
same,No (%) of Responders,"[2]; Total, 52 pts",28 (54) No (%)
same,overall response to therapy,"[2]; all 52 patients, IWCLL 2008 partial responses",54%
same,complete responses,[2]; all patients,no complete responses
same,patients off therapy for progression of disease,[2]; all patients,27%
same,median progression free survival,"[2]; all patients, Kaplan-Meier estimate",481 days
same,median time to response (range),[2]; all responders,85 (27–244) days
same,response rate,[2]; bulky disease,52%
same,No (%) of Responders,"[2]; dose level 5 mg/m^2, 4 pts",1 (25) No (%)
same,No (%) of Responders,"[2]; dose level 10 mg/m^2, 3 pts",2 (67) No (%)
same,No (%) of Responders,"[2]; dose level 14 mg/m^2, 16 pts",11 (69) No (%)
same,No (%) of Responders,"[2]; dose level 17 mg/m^2, 4 pts",1 (25) No (%)
same,No (%) of Responders,"[2]; dose level 10→14 mg/m^2, 6 pts",4 (67) No (%)
same,response rate,[2]; non-bulky (< 5 cm nodes) disease,71%
same,response rate,[2]; prior flavopiridol exposure,38%
same,response rate,"[2]; recommended phase II dose (14 mg/m^2) at the final dose, 35 patients",63%
same,XIAP protein level,XIAP,no significant change
